Data as given in patent publication US20240197828A1, “Chimeric molecule to treat sepsis and other inflammatory conditions” (THE FEINSTEIN INSTITUTES FOR MEDICAL RESEARCH, priority 2022, published 2024).
“Also recorded” adds a separate entry of the source. Residues, ends and D or L forms follow the SMILES beside them.

Tests used:
RAW264.7 macrophages = test: Intracellular uptake of FITC-rmCIRP by macrophages (flow cytometry, confocal microscopy); assay type: cell-based, mouse; settings: for intracellular FITC-rmCIRP uptake (flow cytometry): RAW264.7, FITC-rmCIRP 1 μg/mL co-incubated with test substance (peptide 10 μg/mL), 1 hour, vs FITC-rmCIRP alone
Method: FIG. 3. Effects of MOP peptides MOP-3, MOP-8 and MOP-14 on eCIRP. Flow cytometry experiment whereby RAW264.7 macrophages were treated for 1 hour according to respective group: PBS (volume-equivalent), FITC-rmCIRP (1 μg/mL), or a mixture of FITC-rmCIRP (1 μg/mL) with each respective peptide (10 μg/mL) after co-incubating for 30 minutes. Intracellular FITC-rmCIRP was analyzed by flow cytometry. Median fluorescence intensity (MFI) reported as percentage relative to PBS-treated RAW264.7 cells. Data from two independent experiments are expressed as mean±SEM and compared by one-way ANOVA and SNK test. *p<0.05 vs. PBS, #p<0.05 vs. eCIRP.
(§1) Computational modeling was used to determine the likely domain of MFG-E8's binding to eCIRP. The known amino acid (AA) sequence of this domain was used to develop and test potential therapeutic peptides. An MFG-E8 derived oligopeptide, MOP3, was developed based on 15 AA from MFG-E8 discoidin 2 domain (mimicking MFG-E8's C-terminal) and tagged with the 3 AA, RGD, (mimicking MFG-E8's binding capacity for the integrin receptor at the N-terminal). Binding of MOP3 to CIRP was quantified using Surface Plasmon Resonance (SPR) analysis. Macrophages (RAW264.7 cells) were treated with FITC-recombinant mouse (rm)-CIRP or co-incubated MOP3 and FITC-rmCIRP with and without a. Br-integrin Ab. After 1 h, cells were fixed and analyzed for intracellular FITC-rmCIRP by flow cytometry. Macrophages were stimulated with rmCIRP or co-incubated mixture of MOP3 and rmCIRP. After 4 h, cell culture supernatants were analyzed for inflammatory cytokine, TNFα.
Mouse macrophage cell line, RAW264.7 cells were obtained from American Type Culture Collection (ATCC) and cultured in DMEM media with 10% FBS, 1% penicillin and streptomycin, and 1% glutamine. Cells were kept in 37° C. incubator under humidified conditions containing 5% CO2.
rmCIRP was labeled using a FITC Conjugation Kit (Abcam, ab188285), and rmMFG-E8 was labeled using Alexa Fluor Conjugation Kit (Abcam, ab269821), both according to respective manufacturer's instructions.
In order to visualize cellular uptake, we initially utilized TRITC-BSA as an internal probe, as BSA is taken up into cells primarily by endocytosis and retained intracellularly after fixation (27, 28). For further visualization of intracellular localization, we utilized LAMP1 primary antibody (as it is distributed among endolysosomal organelles and serves as a marker for lysosomal compartments) (29), and utilized lysotracker in live cell experiments (as it allows for imaging of dynamics of lysosome vesicle movements) (30). RAW264.7 cells were treated in various conditions with rmCIRP, rmMFG-E8, and inhibitory antibody against auß3-integrin (Bioss antibodies, bs-1310R) for 4 hours. Cells were fixed with 4% paraformaldehyde (PFA), washed with 1×PBS, permeabilized using 0.3% Triton x100, and blocked using 5% BSA 100 mM Glycine in PBS prior to primary antibody treatment. After incubation with secondary antibodies, cells were washed and mounted with ProLong Gold antifade reagent (Invitrogen). For live cell imaging, cells remained in treatment conditions and were imaged under CO2. Staining procedures were performed according to the manufacturers' instructions utilizing respective fluorescent dyes and probes. For all imaging, confocal microscopy images were obtained using a Zeiss LSM880 confocal microscope equipped with a 63× objective. Images were quantified and analyzed using Image J, FIJI.(31) Flow cytometry.
To detect changes in internalized eCIRP in the presence of MFG-E8, RAW264.7 cells were seeded in 12-well plates (approximately 3×10^5 cells/well) and were treated with FITC-eCIRP. Treatment groups consisted of FITC-eCIRP, FITC-eCIRP with MFG-E8, FITC-eCIRP with MFG-E8 and αvβ3-integrin antibody (0.5 μg/mL), or FITC-eCIRP with MFG-E8 and IgG isotype (0.5 μg/mL). Similar experiments were conducted with MOP3 instead of MFG-E8 in parallel groups. […]

RAW264.7 cells = test: eCIRP-induced cytokine release in RAW264.7 cells (ELISA of supernatants); assay type: cell-based, mouse; settings: RAW264.7, rmCIRP 1 μg/mL, 4 hours, vs rmCIRP alone
Method: FIG. 2. Effects of MOP peptides on TNFα levels. RAW264.7 macrophages were cultured and treated with either volume-equivalent PBS, recombinant murine (rm) CIRP (eCIRP; 1 μg/mL), or rmCIRP with each respective peptide (10 μg/mL). After 4 hours, cell supernatants were assessed for TNFα levels by ELISA. Experiments were performed 3 times, and all data were used for analysis. Data are expressed as mean±SEM and compared by one-way ANOVA and SNK test. *p<0.05 vs. PBS, #p<0.05 vs. eCIRP.
FIG. 4. eCIRP-induced inflammation is attenuated by MOP3. RAW264.7 cells were treated according to respective groups: PBS (volume equivalent), rmCIRP (1 μg/mL), or rmCIRP with MOP3 at increasing doses. After 4 hours, cell supernatants were analyzed for TNFα levels by ELISA. Experiments were performed 3 times, and all data were used for analysis. Data are expressed as mean #SEM and compared by one-way ANOVA and SNK test. *p<0.05 vs. PBS, #p<0.05 vs. eCIRP.
as §1
Mouse macrophage cell line, RAW264.7 cells were obtained from American Type Culture Collection (ATCC) and cultured in DMEM media with 10% FBS, 1% penicillin and streptomycin, and 1% glutamine. Cells were kept in 37° C. incubator under humidified conditions containing 5% CO2. […]
The mouse macrophage cell culture supernatants were analyzed for cytokine levels using ELISA kits (BD Biosciences, CA). […] TNF-α and IL-6 levels were measured in cell supernatants by ELISA in accordance with respective manufacturers' instructions (BD Biosciences, CA). Blood was collected, centrifuged at 4,000 RPM for 10 minutes, and sera was separated and analyzed for cytokine levels using ELISA kits (BD Biosciences, CA). TNF-α and IL-6 levels in the serum were measured by ELISA in accordance with respective manufacturers' instructions.

CC(C)C[C@H](NC(=O)[C@H](CC(N)=O)NC(=O)[C@H](Cc1c[nH]c2ccccc12)NC(=O)[C@@H](NC(=O)[C@H](CCCCN)NC(=O)[C@H](Cc1ccc(O)cc1)NC(=O)[C@H](CO)NC(=O)[C@H](CO)NC(=O)[C@H](CO)NC(=O)[C@H](CC(=O)O)NC(=O)CNC(=O)[C@@H](N)CCCNC(=N)N)[C@@H](C)O)C(=O)N[C@@H](CCCNC(=N)N)C(=O)N[C@@H](C)C(=O)N[C@@H](Cc1ccccc1)C(=O)NCC(=O)N[C@@H](Cc1c[nH]c2ccccc12)C(=O)N[C@@H](Cc1ccc(O)cc1)C(=O)O [MOP3, RGDSSSYKTWNLRAFGWY] (H-RGDSSSYKTWNLRAFGWY-OH; N-terminus and C-terminus assumed)
intracellular FITC-rmCIRP uptake (flow cytometry) (RAW264.7 macrophages): increased intracellular fluorescence; also recorded: significantly increased intracellular rmCIRP uptake | intracellular FITC-rmCIRP uptake (flow cytometry) (RAW264.7 macrophages; listed as peptide-3): could increase intracellular uptake of FITC-eCIRP | intracellular FITC-rmCIRP uptake with αvβ3-integrin blocking antibody (flow cytometry) (RAW264.7 macrophages; RAW264.7, αvβ3-integrin antibody 0.5 μg/mL): prevented | TNFα levels in cell supernatants (RAW264.7 cells): strong inhibitory effect; also recorded: significantly decreased TNFα levels | TNFα levels in cell supernatants (RAW264.7 cells; listed as peptide-3): capable of attenuating TNFα release
